According to EP0338532A2, “N-alkylamino derivates of aromatic, tricyclic compounds in the treatment of drug-resistant protozoal infections” (priority 1988, dated 1989):

Key:
[1] = tested on: chloroquine-sensitive P. falciparum strain; conditions: stated as 'would be approximately'; cited from earlier work
P. falciparum (FCR3) = assay: [3H]-hypoxanthine incorporation, parasite growth inhibition (chloroquine-resistant strain FCR3); format: cell-based, Plasmodium falciparum
Experimental: P. falciparum (clone D6, chloroquine-sensitive; strain FCR3, chloroquine-resistant; and clone W2, multidrug-resistant) was grown in vitro by the method of Trager and Jensen, (1976) Science 193, 673-675. • Figure 1 illustrates the effect of desipramine on the inhibition of parasite growth. […] Isobologram analysis was carried out according to the method of Martin, et al., (1987) Science 235, 899-901 and Berenbaum, (1978) Journal of Infectious Diseases 137, 122-130. […] The X-axis is the IC₅₀ (concentration of drug which inhibits hypoxanthine incorporation by 50%) of chloroquine in the absence or presence of desipramine while the Y-axis is the IC₅₀ for desipramine in the absence or presence of chloroquine. […] Dose-response curves and IC₅₀'s for chloroquine were determined either in the absence of desipramine or in the presence of a fixed concentration of desipramine ranging from 50 ng desipramine/ml up to 500 ng desipramine/ml. […] Clinically achievable plasma concentrations of desipramine in depressed patients are in the range of 50 - 200 ng/ml. Desipramine (500 ng/ml) lowered the IC₅₀ and IC₉₀ for chloroquine by 10-fold. An IC₅₀ for a chloroquine-sensitive P. falciparum strain would be approximately 5 ng/ml. Therefore in the presence of clinically relevant concentrations of desipramine, the chloroquine-resistant P. falciparum strain is as sensitive to chloroquine as is the "sensitive" strain. • Figure 4 illustrates the ability of desipramine to enhance the potency of chloroquine against P. falciparum (W2). The experiment is identical to that of Figure 3 but a different strain of P. falciparum was used. […] The IC₅₀ and IC₉₀ for chloroquine are lowered by a factor of approximately 10. […] The anti-psycotic, chloropromazine, was substituted for desipramine in an experiment similar to that in Figure 2. • Figure 7. […] Uptake of [3H]-chloroquine was followed in clone D6 (chloroquine susceptible, ·) and in clone W2 (multidrug-resistant, o) in the absence or presence of desipramine.

P. falciparum (W2) = format: cell-based, Plasmodium falciparum
Experimental: (§1) P. falciparum (clone D6, chloroquine-sensitive; strain FCR3, chloroquine-resistant; and clone W2, multidrug-resistant) was grown in vitro by the method of Trager and Jensen, (1976) Science 193, 673-675. • Figure 1 illustrates the effect of desipramine on the inhibition of parasite growth. […] Isobologram analysis was carried out according to the method of Martin, et al., (1987) Science 235, 899-901 and Berenbaum, (1978) Journal of Infectious Diseases 137, 122-130. […] The X-axis is the IC₅₀ (concentration of drug which inhibits hypoxanthine incorporation by 50%) of chloroquine in the absence or presence of desipramine while the Y-axis is the IC₅₀ for desipramine in the absence or presence of chloroquine. […] Dose-response curves and IC₅₀'s for chloroquine were determined either in the absence of desipramine or in the presence of a fixed concentration of desipramine ranging from 50 ng desipramine/ml up to 500 ng desipramine/ml. […] Clinically achievable plasma concentrations of desipramine in depressed patients are in the range of 50 - 200 ng/ml. Desipramine (500 ng/ml) lowered the IC₅₀ and IC₉₀ for chloroquine by 10-fold. An IC₅₀ for a chloroquine-sensitive P. falciparum strain would be approximately 5 ng/ml. […]

[2] = tested on: chloroquine-susceptible clone D6 of P. falciparum; assay: [3H]-hypoxanthine incorporation, parasite growth inhibition (chloroquine-susceptible clone D6); format: cell-based, Plasmodium falciparum; conditions: Figure 5, experiment similar to Figures 3 and 4
Experimental: as §1

[3] = depressed patients; cited from earlier work
[4] = tested on: clone W2 (multidrug-resistant); assay: Uptake of [3H]-chloroquine by parasites (clone W2); format: cell-based, P. falciparum; conditions: Figure 7; drug-resistant parasites, presence vs absence of desipramine
Experimental: as §1

[5] = Figure 3, desipramine 500 ng/ml, FCR3

In the case of `CCN(CC)CCCC(C)Nc1ccnc2cc(Cl)ccc12` (stereo not drawn) [chloroquine], the IC50 [1] is listed as “approximately 5 ng/ml”.

In the case of `CNCCCN1c2ccccc2CCc2ccccc21` [desipramine, Desipramine], the “lowering of the IC50 for chloroquine” value (P. falciparum (FCR3); [5]) is reported as 10 fold, the “lowering of the IC90 for chloroquine” value (P. falciparum (FCR3); [5]) is reported as 10 fold and the “effects on P. falciparum when desipramine was added alone” value (P. falciparum (W2); Figure 4, at the desipramine concentrations used, without chloroquine) is reported as “only slight effects”. The “sensitivity of the strain to desipramine” value (P. falciparum (W2); W2 compared with FCR3) was “more sensitive”, the “change of the response to chloroquine” value [2] was “does not change the response” and the “Clinically achievable plasma concentrations” value [3] was 50 to 200 ng/mL. For the same molecule, the “accumulation of chloroquine by parasites” value [4] was “increases the accumulation of chloroquine”.

In the case of `CN(C)CCCN1c2ccccc2Sc2ccc(Cl)cc21` [chloropromazine], the “synergism of chloropromazine and chloroquine (isobologram)” value (P. falciparum (FCR3); Figure 6, experiment similar to Figure 2, combination with chloroquine) is reported as “synergism”.
